Laboratory results as given in PubChem BioAssay AID1996.
In brackets after ≈: the same amount, converted by molar mass.

Settings: buffer; pH 7.4; 200.0 µM

Compared with `COCCn1c(N)c(N(Cc2ccccc2)C(=O)Cc2ccccc2F)c(=O)[nH]c1=O`, `O=C1CN(C(=O)/C=C/c2ccccc2F)c2ccccc2N1` is 4.9-fold lower in solubility kinetic: 62.9 µg/mL (≈ 147 µM) for the first, 12.9 µg/mL (≈ 43.5 µM) for the second.

First: OC(CN1CCC(c2c[nH]c3ccccc23)CC1)C(F)(F)F (centres undefined)
Second: CC(NC1CCN(Cc2ccccc2)CC1)c1ccc(F)cc1 (centres undefined)
The solubility kinetic of the first is higher: greater than 46.9 µg/mL for the first, 42.3 µg/mL (≈ 135 µM) for the second.

Compared with `C1CN(c2nc3nonc3nc2N2CCSCC2)CCO1`, `Cc1sc(NC(=O)CN2CCOCC2)c(C#N)c1C` is higher in solubility kinetic: 41.1 µg/mL (≈ 133 µM) for the first, greater than 41.9 µg/mL for the second.

`Nc1nnc(SCC(=O)OCC(=O)c2ccccc2)s1` and `NC(=O)C1(C(N)=O)OC1c1ccccc1` (centres undefined) cannot be ordered by solubility kinetic: greater than 46.4 µg/mL for the first, greater than 30.9 µg/mL for the second.

Going from `O=C(OCC(=O)c1ccc[nH]1)c1ccc(Cl)c(Cl)c1` to `N#Cc1ccccc1COC(=O)c1cccc(S(=O)(=O)N2CCCC2)c1`, the solubility kinetic rises from 6.8 µg/mL (≈ 22.8 µM) to 12 µg/mL (≈ 32.4 µM) (1.8-fold).

Compared with `O=CN1CCN(C(=S)NC(=O)c2ccc(Cl)cc2)CC1`, `O=C(NCC(=O)N1CCCCCCC1)c1ccccc1Cl` is higher in solubility kinetic: 44.3 µg/mL (≈ 142 µM) for the first, greater than 46.3 µg/mL for the second.

Compared with `S=C(NCCc1cccc(Cl)c1)NCc1ccccc1`, `CC(C)Oc1ccc(CNC(=S)Nc2ccccc2)cc1Cl` is 2.1-fold lower in solubility kinetic: 14.9 µg/mL (≈ 48.9 µM) for the first, 7.2 µg/mL (≈ 21.5 µM) for the second.

Compared with `COc1cccc(C(=O)Nc2cccc(-c3ccccc3)c2)c1`, `O=C(Nc1ccsc1C(=O)O)c1cccc(Oc2ccccc2)c1` is 17-fold higher in solubility kinetic: 2.5 µg/mL (≈ 8.24 µM) for the first, 43.2 µg/mL (≈ 127 µM) for the second.

First: Cc1cccc(N2CCN(Cc3ccc([N+](=O)[O-])o3)CC2)c1C
Second: CN1CCN(c2ccccc2NC(=O)c2cccc([N+](=O)[O-])c2)CC1
The solubility kinetic of the first is lower: 6.1 µg/mL (≈ 19.3 µM) for the first, greater than 51.1 µg/mL for the second.

First: Cc1ccc(N2CC(C(=O)NC3CCC(C)CC3)CC2=O)cc1 (centres undefined)
Second: COc1ccc(N2CC(C(=O)NCc3ccco3)CC2=O)cc1 (centres undefined)
The solubility kinetic of the first is 13-fold lower: 2.5 µg/mL (≈ 7.95 µM) for the first, 32.2 µg/mL (≈ 102 µM) for the second.

Going from `COc1cc(/C=C/C(=O)OCC(=O)NCCCc2ccccc2)cc(OC)c1OC` to `Cc1ccc(S(=O)(=O)N(C)C)cc1NC(=O)CCc1ccccc1`, the solubility kinetic rises from 27.8 µg/mL (≈ 67.2 µM) to 49.9 µg/mL (≈ 144 µM) (1.8-fold).

First: O=C(O)c1ccc2c(=O)n3c(nc2c1)/C(=C/c1ccc(F)cc1)CC3
Second: Cc1cc(SCC(=O)N2CCCC2=O)nc2c(C)cccc12
The solubility kinetic of the first is higher: greater than 50.4 µg/mL for the first, 2.3 µg/mL (≈ 7.32 µM) for the second.

`CCCc1cc(=O)[nH]c(SCC(=O)N2c3ccccc3CC2C)n1` (centres undefined) and `COCC(C)n1c(C)cc(C(=O)COC(=O)c2nn(C)c(=O)c3ccccc23)c1C` (centres undefined) cannot be ordered by solubility kinetic: greater than 51.5 µg/mL for the first, greater than 61.7 µg/mL for the second.

`COc1ccc(CCC(=O)Nc2nccs2)cc1OC` and `COc1ccccc1NC(=O)C(C)OC(=O)Cc1ccsc1` (centres undefined) cannot be ordered by solubility kinetic: greater than 43.9 µg/mL for the first, greater than 47.9 µg/mL for the second.

Going from `CC(=O)c1sc(-c2ccccc2)cc1NS(=O)(=O)c1ccccc1` to `Cc1ccccc1NC(=O)c1cccc(S(=O)(=O)Nc2cccc(C(=O)O)c2)c1`, the solubility kinetic rises from less than 0.8 µg/mL to 34.6 µg/mL (≈ 84.3 µM).

Going from `CCOC(=O)C1CCCN(C(=O)CSc2nnc3nc(C)cc(C)n23)C1` (centres undefined) to `CCCC(=O)N1CCN(c2nc3ccc(CC)cc3s2)CC1`, the solubility kinetic falls from greater than 56.6 µg/mL to 13.5 µg/mL (≈ 42.5 µM).

`O=[N+]([O-])c1ccc2cn[nH]c2c1` and `O=C(NCCN1CCOCC1)c1cc([N+](=O)[O-])ccc1Cl` cannot be ordered by solubility kinetic: greater than 24.5 µg/mL for the first, greater than 47.1 µg/mL for the second.

First: N#C/C(=C/c1cccs1)c1ccccn1
Second: O=C(NC1CCCc2ccccc21)c1cc(Cl)ccn1 (centres undefined)
The solubility kinetic of the first is 1.9-fold lower: 7 µg/mL (≈ 33 µM) for the first, 13.2 µg/mL (≈ 46 µM) for the second.

First: CC1CN(S(=O)(=O)c2cccc(C(F)(F)F)c2)CC(C)O1 (centres undefined)
Second: CCOc1ccc(S(=O)(=O)N2CCOCC2)cc1[N+](=O)[O-]
The solubility kinetic of the first is lower: 43.6 µg/mL (≈ 135 µM) for the first, greater than 47.4 µg/mL for the second.

Going from `O=C(Nc1ccc(Oc2ccsc2C(=O)O)cc1)c1ccccc1` to `Cc1c(NC(=O)c2ccc(-c3ccccc3)cc2)cccc1C(=O)O`, the solubility kinetic falls from greater than 50.9 µg/mL to 42.3 µg/mL (≈ 128 µM).

First: CN(c1ccccc1)S(=O)(=O)c1cccc(NC(=O)c2ccc(Cl)c([N+](=O)[O-])c2)c1
Second: CN(c1ccc(C(=O)NC2CCCC2)cc1)S(=O)(=O)c1ccccc1
The solubility kinetic of the first is 27-fold lower: 1.8 µg/mL (≈ 4.04 µM) for the first, 48.9 µg/mL (≈ 136 µM) for the second.

Going from `CCc1ccc(N2C(=O)CC(N3CCN(c4ccccn4)CC3)C2=O)cc1` (centres undefined) to `CCN1CCN(Cc2c3ccccc3cc3ccccc23)CC1`, the solubility kinetic falls from greater than 54.7 µg/mL to 27.9 µg/mL (≈ 91.6 µM).

Going from `NC(=O)c1ccc(OCC(F)(F)F)nc1` to `Cc1ccccc1C(=O)O/N=C(\N)c1ccc([N+](=O)[O-])cc1`, the solubility kinetic falls from 31.1 µg/mL (≈ 141 µM) to 6 µg/mL (≈ 20 µM) (5.2-fold).

`O=c1[nH]c(=S)n(C2CC2)c(O)c1C=NCc1cccnc1` and `Cn1c(C2CCCCC2)nc2ccccc21` cannot be ordered by solubility kinetic: greater than 45.4 µg/mL for the first, greater than 32.1 µg/mL for the second.

`Cc1cc(C)c2sc(NC(=O)CN3C(=O)CCC3=O)nc2c1` and `Cc1ccc(CNC(=O)c2ccc(Cl)c(S(N)(=O)=O)c2)n1C` are within 1.5-fold of each other in solubility kinetic: 46.4 µg/mL (≈ 146 µM) for the first, 41.5 µg/mL (≈ 121 µM) for the second.

Going from `O=C1SCCC1NS(=O)(=O)c1ccc([N+](=O)[O-])cc1` (centres undefined) to `CC(=O)Nc1ccc(S(=O)(=O)N2CCCC(C(=O)O)C2)cc1` (centres undefined), the solubility kinetic rises from 38.3 µg/mL (≈ 127 µM) to greater than 49 µg/mL.

Going from `O=C(NCc1ccccc1)N1CCC(Cc2ccccc2)CC1` to `O=C(Nc1ccccc1)N(c1ccccc1)C1C=CS(=O)(=O)C1` (centres undefined), the solubility kinetic rises from less than 0.3 µg/mL to greater than 49.3 µg/mL.

Compared with `O=C(COC(=O)COc1cccc(Br)c1)NCc1ccc2c(c1)OCO2`, `CN(C)c1ccc(C(=O)NCc2ccc3c(c2)OCO3)cc1` is 3.2-fold lower in solubility kinetic: 32.6 µg/mL (≈ 77.2 µM) for the first, 10.2 µg/mL (≈ 34.2 µM) for the second.

Going from `CC1SCC(=NOCc2ccccc2)CS1` (centres undefined) to `CCOc1ccccc1C(=O)N(C)CC(=O)Nc1ccc(OC)cc1`, the solubility kinetic rises from 11.5 µg/mL (≈ 45.4 µM) to greater than 51.4 µg/mL.

Work on `CC(C)Sc1nc2ncnc(N)c2[nH]1` yielded a solubility kinetic greater than 31.4 µg/mL.
